Assay results: article PMC7822874, “Chemoprotective antimalarials identified through quantitative high-throughput screening of Plasmodium blood and liver stage parasites” (Scientific Reports, 2021)
Read-outs that look alike come from different tables or passages of the source.

Tests used:
Type in all cases: cell-based, Plasmodium falciparum
Details in all cases: Plasmodium falciparum
[1] = test system: P. falciparum Dd2 Cytb G131S; assay: SYBR Green ABS proliferation assay, NCGC00374598 selected clone C11
Procedure, shortened: (§1)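 Asexual blood-stage proliferation of cytochrome b-mutant Dd2 clones after 72 h compound exposure at 37 °C in low-oxygen gas, quantified as control-normalized SYBR Green-I fluorescence; differences tested by two-sided t-test.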

[2] = test system: P. falciparum Dd2 Cytb V259L; assay: SYBR Green ABS proliferation assay, NCGC00473217 selected clone F06
Procedure, shortened: as §1

[3] = test system: P. falciparum Dd2 Cytb F123L; assay: SYBR Green ABS proliferation assay, NCGC00473217 selected clone G08
Method: (§2) As resistance selection studies implicated the parasite cytochrome bc1 complex in mediating reduced parasite susceptibility to both NCGC00473217 and NCGC00374598, we leveraged these drug-selected parasites to test for altered drug response to a panel of antimalarial compounds.
(§3) The P. falciparum parasite Dd2 line was cultured in vitro using standard conditions. […] Tissue culture flasks and assay plates were incubated at 37 °C under a gas mixture of 5% CO2, 5% O2 and 90% N2. […] Significant differences were assessed using two-sided Student’s t-tests. All HTS assays were stopped and read at 72 h. Percent response values represent relative growth as judged by SYBR Green-I fluorescence intensity values normalized to controls.
(§4) Fresh uninfected RBCs (0.5% hematocrit) were added on day 7 and media was changed every other day. […] Resistant parasites were maintained under drug media at a volume of 50 mL until a high parasitemia (> 5%) was achieved. Aliquots of the bulk resistant cultures were frozen in cryovials before cloning by limiting dilution in 96-well plates (seeded at 0.25 or 0.5 parasites/well)[70]. After 3 weeks of cloning, we screened for positive wells by flow cytometry with SYBR Green-stained cells. […] Parasites were harvested by saponin lysis at the trophozoite stage and genomic DNA was extracted using the QIAamp DNA Blood Midi Kit (Qiagen, Germantown, MD)[71].

[4] = test system: P. falciparum Dd2 Cytb A122D; assay: SYBR Green ABS proliferation assay, NCGC00473217 selected clone F12
Method: as §2, §3, §4

[5] = DD2, cytochrome b mutant line, second value triple, c6, […], read-out: log AC50, mean (converted)
[6] = DD2, cytochrome b mutant line, third value triple, c9, […], read-out: log AC50, mean (converted)
[7] = DD2, cytochrome b mutant line, fifth value triple, c15, […], read-out: log AC50, mean (converted)
[8] = DD2, cytochrome b mutant line, fourth value triple, c12, […], read-out: log AC50, mean (converted)
[9] = DD2, […], averaged from three independent replicates, top concentration 29 µM, read-out: Average AC50 (Log[M]), NCGC00374598 clone C11 (Cytb G131S) (converted)
[10] = DD2, […], averaged from three independent replicates, top concentration 29 µM, read-out: Average AC50 (Log[M]), NCGC00473217 clone F06 (Cytb V259L) (converted)
[11] = DD2, […], averaged from three independent replicates, top concentration 29 µM, read-out: Average AC50 (Log[M]), NCGC00473217 clone G08 (Cytb F123L) (converted)
[12] = DD2, […], averaged from three independent replicates, top concentration 29 µM, read-out: Average AC50 (Log[M]), NCGC00473217 clone F12 (Cytb A122D) (converted)

Structure (SMILES)	AC50 [1, 5]	AC50 [2, 6]	AC50 [3, 7]	AC50 [4, 8]	AC50 [1, 9]	AC50 [2, 10]	AC50 [3, 11]	AC50 [4, 12]
COc1ccc(-c2nc(C3CC3)nc3c2CCN(Cc2ccccc2)CC3)cc1 [NCGC00374622-01]	6.43e-06 M	6.93e-06 M	6.68e-06 M	6.93e-06 M	–	–	–	–
CCCN1C(CC(C)C)=N[S+](=O)([O-])c2cc(NC(=O)c3ccccc3C(F)(F)F)ccc21 [NCGC00531765-01]	7.67e-06 M	7.52e-06 M	1.17e-05 M	1.17e-05 M	–	–	–	–
CCCN1C(CC(C)C)=N[S+](=O)([O-])c2cc(NC(=O)c3ccc(SC)cc3)ccc21 [NCGC00531764-01]	7.96e-08 M	2.12e-06 M	1e-05 M	8.93e-06 M	–	–	–	–
COc1ccc(-c2nc(C(C)C)nc3c2CCN(C(=O)Nc2ccccc2)CC3)cc1 [NCGC00479509-01]	1.19e-05 M	1.61e-05 M	1.23e-05 M	1.44e-05 M	–	–	–	–
O=C(c1cccc(Cl)c1)N1CCc2nc(C3CC3)nc(-c3ccc(O)cc3)c2CC1 [NCGC00480367-01]	1.06e-05 M	2.66e-06 M	1.28e-06 M	1.55e-05 M	–	–	–	–
CCCN1C(CC(C)C)=N[S+](=O)([O-])c2cc(NC(=O)c3cccc(Cl)c3)ccc21 [NCGC00531770-01]	4.74e-06 M	3.56e-06 M	4.48e-06 M	2.82e-06 M	–	–	–	–
COc1cc(OC)c(OC)cc1CN1CCc2nc(N(C)C)[nH]c(=O)c2CC1 [NCGC00440589-01]	2.66e-06 M	2.76e-06 M	2.03e-06 M	1.61e-06 M	–	–	–	–
CCCN1C(CC(C)C)=N[S+](=O)([O-])c2cc(NC(=O)c3ccc4c(c3)OCCO4)ccc21 [NCGC00531778-01]	2.24e-07 M	5.22e-06 M	1.31e-05 M	1.31e-05 M	–	–	–	–
CCCN1C(CC2CCOCC2)=N[S+](=O)([O-])c2cc(NC(=O)c3cccs3)ccc21 [NCGC00537663-01]	3.7e-06 M	4.66e-06 M	3.56e-06 M	2.82e-06 M	–	–	–	–
CCCN1C(CC2CCCCC2)=N[S+](=O)([O-])c2cc(NC(=O)c3cccs3)ccc21 [NCGC00532404-01]	9.66e-07 M	1.5e-06 M	3.99e-06 M	1.53e-06 M	–	–	–	–
CCCN1C(CC(C)C)=N[S+](=O)([O-])c2cc(NC(=O)c3ccc(F)c(Br)c3)ccc21 [NCGC00531767-01]	2.08e-06 M	1.06e-06 M	6.32e-06 M	8.61e-06 M	–	–	–	–
CCCN1C(CC2CCOCC2)=N[S+](=O)([O-])c2cc(NC(=O)c3ccc(F)cc3)ccc21 [NCGC00537661-01]	2e-07 M	5.02e-06 M	4.84e-06 M	5.86e-06 M	–	–	–	–
Cc1ccccc1C(=O)N1CCc2nc(C3CC3)nc(-c3ccc(O)cc3)c2CC1 [NCGC00480365-01]	1.38e-05 M	1.28e-05 M	1.38e-05 M	1.81e-05 M	–	–	–	–
CCCN1C(CC(C)C)=N[S+](=O)([O-])c2cc(NCc3ccccc3)ccc21 [NCGC00531800-01]	1e-05 M	1.12e-05 M	1.42e-05 M	9.46e-06 M	–	–	–	–
COc1ccc(-c2nc(C3CC3)nc3c2CCN(C(=O)c2ccc(C(F)(F)F)cc2)CC3)cc1 [NCGC00374638-01]	1.19e-05 M	1.38e-05 M	1.06e-05 M	1.28e-05 M	–	–	–	–
O=c1[nH]c(N2CCOCC2)nc2c1CCN(Cc1ccc(Cl)c(F)c1)CC2 [NCGC00440655-01]	1.14e-05 M	1.38e-05 M	4.55e-06 M	1.28e-05 M	–	–	–	–
COc1ccc(-c2nc(C3CC3)nc3c2CCN(Cc2ccc(F)cc2)CC3)cc1 [NCGC00374624-01]	8.73e-06 M	9.79e-06 M	9.08e-06 M	1.1e-05 M	–	–	–	–
CCCN1C(CC(C)C)=N[S+](=O)([O-])c2cc(NC(C)=O)ccc21 [NCGC00521093-01]	–	–	–	–	2e-05 M	8.93e-06 M	7.96e-06 M	1.04e-05 M
CC(C)c1nc2c(c(-c3ccc(Cl)cc3)n1)CCN(C(=O)c1ccc(C(F)(F)F)cc1)CC2 [NCGC00374584-01]	6.93e-06 M	7.5e-06 M	8.41e-06 M	7.5e-06 M	–	–	–	–

Structure (SMILES)	AC50 [1, 5]	AC50 [2, 6]	AC50 [3, 7]	AC50 [4, 8]	AC50 [1, 9]	AC50 [2, 10]	AC50 [3, 11]	AC50 [4, 12]
CCCN1C(CC(C)C)=N[S+](=O)([O-])c2cc(NC(=O)c3ccc(F)c(Cl)c3)ccc21 [NCGC00531769-01]	2.82e-06 M	3.7e-06 M	3.99e-07 M	7.38e-06 M	–	–	–	–
COc1ccc(-c2nc(C3CC3)nc3c2CCN(Cc2ccc(C#N)cc2)CC3)cc1 [NCGC00374656-01]	7.5e-06 M	1.14e-05 M	8.09e-06 M	8.41e-06 M	–	–	–	–
CCCN1C(CC(C)C)=N[S+](=O)([O-])c2cc(NC(=O)c3ccc(Cl)cc3)ccc21 [NCGC00531775-01]	2e-07 M	6.32e-07 M	3.17e-06 M	2.24e-07 M	–	–	–	–
CCCN1C(Cc2ccccc2)=N[S+](=O)([O-])c2cc(NC(=O)c3cccs3)ccc21 [NCGC00532337-01]	3.05e-06 M	7.96e-07 M	1e-05 M	7.1e-06 M	–	–	–	–
COc1ccc(-c2nc(C(C)C)nc3c2CCN(C(=O)c2ccccc2Cl)CC3)cc1 [NCGC00479503-01]	2.28e-06 M	1.58e-05 M	1.23e-05 M	1.28e-05 M	–	–	–	–
CCCN1C(CC(C)C)=N[S+](=O)([O-])c2cc(NCc3cccs3)ccc21 [NCGC00531814-01]	1.59e-05 M	1.78e-05 M	1.59e-05 M	1.93e-05 M	–	–	–	–
COc1ccc(-c2nc(C(C)C)nc3c2CCN(C(=O)Cc2ccc(F)cc2)CC3)cc1 [NCGC00479517-01]	1.5e-05 M	1.88e-05 M	1.06e-05 M	1.68e-05 M	–	–	–	–
N[S+](=O)([O-])c1cc2c(cc1C(F)(F)F)NCN[S+]2(=O)[O-] [NCGC00016401-08]	–	–	–	–	2.24e-05 M	3.85e-06 M	3.56e-06 M	3.56e-06 M
CCCN1C(CC(C)C)=N[S+](=O)([O-])c2cc(NC(=O)c3cccc(C(F)(F)F)c3)ccc21 [NCGC00531777-01]	7.1e-07 M	1.36e-06 M	2.24e-09 M	7.52e-06 M	–	–	–	–
COc1ccc(-c2nc(C(C)C)nc3c2CCN(C(=O)Cc2cccc(Cl)c2)CC3)cc1 [NCGC00479508-01]	1.33e-05 M	1.74e-05 M	1.28e-05 M	1.44e-05 M	–	–	–	–
O=c1[nH]c(N2CCOCC2)nc2c1CCN(Cc1ccc(C(F)(F)F)cc1)CC2 [NCGC00440629-01]	6.43e-06 M	1.5e-05 M	1.88e-06 M	9.08e-06 M	–	–	–	–
CCCN1C(COC)=N[S+](=O)([O-])c2cc(NC(=O)c3cccs3)ccc21 [NCGC00532347-01]	1.78e-06 M	8.93e-06 M	7.96e-09 M	8.93e-06 M	–	–	–	–
CCCN1C(CC(C)C)=N[S+](=O)([O-])c2cc(NC(=O)c3cn(C)cn3)ccc21 [NCGC00521148-01]	–	–	–	–	2.67e-06 M	1.17e-05 M	7.1e-06 M	1.12e-05 M
Cc1cc(CN2CCc3nc(C(C)C)nc(-c4ccc(Cl)cc4)c3CC2)no1 [NCGC00374612-01]	1.55e-05 M	1.38e-05 M	9.79e-06 M	1.68e-05 M	–	–	–	–
CCCN1C(CC(C)C)=N[S+](=O)([O-])c2cc(NC(=O)c3cccc(OC)c3)ccc21 [NCGC00531773-01]	3.56e-06 M	7.67e-06 M	1.06e-05 M	1e-05 M	–	–	–	–
CCCN1C(CC(C)C)=N[S+](=O)([O-])c2cc(N(Cc3cccs3)Cc3cccs3)ccc21 [NCGC00531812-01]	6.32e-06 M	3.56e-06 M	4.66e-06 M	3.99e-06 M	–	–	–	–
CCCN1C(CC(C)C)=N[S+](=O)([O-])c2cc(NC(=O)c3c(Cl)cccc3Cl)ccc21 [NCGC00531779-01]	1.85e-06 M	1.19e-05 M	1.53e-05 M	1.59e-05 M	–	–	–	–
CCCN1C(CC(C)C)=N[S+](=O)([O-])c2cc(NC(=O)Cc3cccs3)ccc21 [NCGC00531815-01]	1e-05 M	7.67e-06 M	5.64e-06 M	5.22e-06 M	–	–	–	–
CCCN1C(CC(C)C)=N[S+](=O)([O-])c2cc(NC(=O)c3cccnn3)ccc21 [NCGC00521144-01]	–	–	–	–	2e-05 M	2.82e-06 M	1.12e-05 M	2.67e-06 M
